Laboratory results taken from US4238491A (priority 1977, dated 1980).
Read-outs that look alike come from different tables or passages of the source.

Key:
blood pressure of SHR = assay: Antihypertensive effect by single administration, SHR, direct cannulation; type: in vivo, rat (spontaneously hypertensive rats; conditions: for average rate of decrease in blood pressure: over 6 hours; for blood pressure decrease: 6 hours after; for ED (20% blood pressure decrease): Rattus norvegicus, read-out: DB20 (20% blood pressure descending dose)
Procedure: The effect was examined through both direct and modified tail-cuff methods using male SHRs aged 25 to 30 weeks and weighing about 300 g.
In the direct cannulation method, polyethylene cannules were inserted in femoral arteries of the conscious unanesthesized SHRs under back-fixation,and MR solution was administered in an amount of 0.1 mg/100 g of weight for venous injection, and 1 ml/100 g of weight for oral administration. Changes in the blood pressure over 6 hours were measured with a multi-purpose polygraph RM-85 made by NIHON KODEN Co., Ltd. MR was dissolved in 0.9% NaCl aqueous solution with 1 N-HCl, and the solution was neutralized for use.

rats [1] = system: rats
From the text: Rats were sacrificed under anesthesia with ether. After observation of gross appearance of all the organs, extraction and weighing were made on spleen, lung, liver, adrenal, heart, thymus, kidney, testicles, hypophysis and thyroid. In addition to the above organs, femoral bone marrow, lymph node, stomach, intestine, pancreas, urinary bladder, prostate and central nervous system were removed and fixed in 10% formaline solution.

Solubility = type: physicochemical
central nervous system = assay: Behavior-pharmacological studies, central nervous system depressing effect; design: species or system mouse (dd-strain); conditions: mouse, in vivo
From the text: Effects on central nervous system were studied as follows: […]

[2] = Excretion into urine after oral administration; conditions: rabbit, 10 mg/kg
From the text: Urine was collected with urine bladder catheter for rabbits and metabolic cages for rats.

[3] = system: noradrenaline in heart and adrenals; conditions: in vivo; cited from earlier work
rats [4] = system: rats; remark: listed apart in the source
Procedure: Urinanalysis was conducted on the last day of the repeated administration as to pH, protein content, glucose content, ketone body content and occult blood by testing paper methods. (Labstix, Miles-Sankyo Co., Ltd.)

[5] = in vivo; cited from earlier work
serotonin in Brain = conditions: in vivo; cited from earlier work
rat = conditions: oral

## COC(=O)[C@H]1[C@H]2C[C@@H]3c4[nH]c5cc(OC)ccc5c4CCN3C[C@H]2C[C@@H](O)[C@@H]1OC [MR, methylreserpate]
Blood pressure of SHR; 2 mg/kg venous injection
  average rate of decrease in blood pressure: 13%
Blood pressure of SHR; 4 mg/kg oral
  onset of blood pressure decrease: 2 h
  blood pressure decrease: 18%
Blood pressure of SHR; 4 mg/kg venous injection
  average rate of decrease in blood pressure: 22.5%
Blood pressure of SHR; 8 mg/kg oral
  blood pressure decrease: 26%
Blood pressure of SHR; 8 mg/kg venous injection
  average rate of decrease in blood pressure: 28%
Blood pressure of SHR; 16 mg/kg oral
  blood pressure decrease: 37%
Blood pressure of SHR; iv, I.V.
  ED (20% blood pressure decrease): 3.5 mg/kg
Blood pressure of SHR; po, P.O.
  ED (20% blood pressure decrease): 11.9 mg/kg
Blood pressure of SHR; oral
  antihypertensive effect compared with RCN: almost the same
Blood pressure of SHR; oral, summary for SHR and dogs
  antihypertensive effect: prolonged antihypertensive effect
Blood pressure of SHR; venous injection
  antihypertensive effect compared with RCN: less intense
Rats [1]; 25.0 mg/kg
  Absolute weight Brain: 2.26 ± 0.04 g
  Absolute weight Hypophysis: 11.98 ± 0.44 mg
  Absolute weight Kidney: 1.20 ± 0.04 g
  Absolute weight Liver: 10.00 ± 0.47 g
  Absolute weight Lung: 2.35 ± 0.05 g
  Absolute weight Spleen: 0.71 ± 0.03 g
  Absolute weight Thymus: 0.54 ± 0.02 g
  Absolute weight Thyroid: 10.07 ± 0.55 mg
Rats [1]; 25.0 mg/kg, P<0.01
  Absolute weight Salivary: 0.26 ± 0.01 g
Rats [1]; 50.0 mg/kg
  Absolute weight Brain: 2.26 ± 0.03 g
  Absolute weight Hypophysis: 11.93 ± 0.48 mg
  Absolute weight Kidney: 1.19 ± 0.03 g
  Absolute weight Liver: 10.16 ± 0.33 g
  Absolute weight Lung: 2.26 ± 0.10 g
  Absolute weight Spleen: 0.73 ± 0.03 g
  Absolute weight Thymus: 0.58 ± 0.05 g
  Absolute weight Thyroid: 8.55 ± 0.50 mg
Rats [1]; 50.0 mg/kg, P<0.05
  Absolute weight Salivary: 0.26 ± 0.01 g
Rats [1]; 100 mg/kg
  absolute weight of other organs: decrease in weight of the other organs
Rats [1]; 100.0 mg/kg
  Absolute weight Hypophysis: 10.46 ± 0.17 mg
  Absolute weight Spleen: 0.56 ± 0.03 g
  Absolute weight Thyroid: 7.86 ± 0.38 mg
Rats [1]; 100.0 mg/kg, P<0.01
  Absolute weight Kidney: 0.89 ± 0.03 g
  Absolute weight Salivary: 0.21 ± 0.01 g
  Absolute weight Thymus: 0.39 ± 0.03 g
Rats [1]; 100.0 mg/kg, P<0.05
  Absolute weight Brain: 2.17 ± 0.04 g
  Absolute weight Liver: 7.55 ± 0.32 g
  Absolute weight Lung: 2.10 ± 0.06 g
Rats [1]; 25 and 50 mg/kg groups
  absolute adrenal weight: weight increase of adrenal
Rats [1]; rat, in vivo
  Absolute weight Brain: 2.28±0.03
  Absolute weight Hypophysis: 10.60±0.41
  Absolute weight Kidney: 1.17±0.05
  Absolute weight Liver: 10.18±0.50
  Absolute weight Lung: 1.32±0.12
  Absolute weight Salivary: 0.27±0.01
  Absolute weight Spleen: 0.69±0.03
  Absolute weight Thymus: 0.63±0.04
  Absolute weight Thyroid: 8.59±0.50
  gross appearance of organs: no noteworthy change
Solubility
  solubility in chloroform: easily soluble
  solubility in ethanol: easily soluble
  solubility in methanol: easily soluble
  solubility in water: hardly soluble
Central nervous system
  central nervous system depressing effect compared with RSP: weaker than that of RSP
[2]
  dose excreted at 48 h: 10 to 15%
[3]
  noradrenaline in heart and adrenals: slight decrease of noradrenaline in heart and adrenals
Rats [4]; 25.0 mg/kg
  urine Glucose -: 10 Number of Rats
  urine Ketone Body +: 0 Number of Rats
  urine Ketone Body -: 10 Number of Rats
  urine Occult Blood -: 10 Number of Rats
  urine Protein +: 6 Number of Rats
  urine Protein ++: 4 Number of Rats
  urine Protein +++: 0 Number of Rats
  urine Protein -: 0 Number of Rats
  urine pH 6: 2 Number of Rats
  urine pH 7: 7 Number of Rats
  urine pH 8: 1 Number of Rats
Rats [4]; 50.0 mg/kg
  urine Glucose -: 10 Number of Rats
  urine Ketone Body +: 1 Number of Rats
  urine Ketone Body -: 9 Number of Rats
  urine Occult Blood -: 10 Number of Rats
  urine Protein +: 6 Number of Rats
  urine Protein ++: 4 Number of Rats
  urine Protein +++: 0 Number of Rats
  urine Protein -: 0 Number of Rats
  urine pH 6: 1 Number of Rats
  urine pH 7: 7 Number of Rats
  urine pH 8: 2 Number of Rats
Rats [4]; 100.0 mg/kg
  urine Glucose -: 10 Number of Rats
  urine Ketone Body +: 1 Number of Rats
  urine Ketone Body -: 9 Number of Rats
  urine Occult Blood -: 10 Number of Rats
  urine Protein +: 3 Number of Rats
  urine Protein ++: 3 Number of Rats
  urine Protein +++: 3 Number of Rats
  urine Protein -: 1 Number of Rats
  urine pH 6: 2 Number of Rats
  urine pH 7: 7 Number of Rats
  urine pH 8: 1 Number of Rats
Rats [4]; higher doses
  increase in urine volume, interpretation: seems to be a diuretic effect
Rats [4]; last day of repeated administration
  urinanalysis overall: do not indicate abnormal feature any worth special mention
Rats [4]; rat, in vivo
  urine Glucose -: 10 Number of Rats
  urine Ketone Body +: 0 Number of Rats
  urine Ketone Body -: 10 Number of Rats
  urine Occult Blood -: 10 Number of Rats
  urine Protein +: 5 Number of Rats
  urine Protein ++: 3 Number of Rats
  urine Protein +++: 2 Number of Rats
  urine Protein -: 0 Number of Rats
Rats [4]; rat, in vivo, pH 6
  urine pH 6: 3 Number of Rats
Rats [4]; rat, in vivo, pH 7
  urine pH 7: 4 Number of Rats
Rats [4]; rat, in vivo, pH 8
  urine pH 8: 3 Number of Rats
[5]
  antihypertensive effect: no antihypertensive effect
Serotonin in Brain
  serotonin in Brain: no decrease of serotonin in Brain
rat
  LD50 as multiple of clinical dosage of RCN: about 24,000 times
